Source: patent US20090155318A1, “PROCESS TO FORM NANO-SIZED MATERIALS, THE COMPOSITIONS AND USES THEREOF” (priority 2006, published 2009)

Experiment: solubility (saturation concentration) of the salts in water versus temperature, FIG. 2
Type: physicochemical
Conditions: at 0° C., aqueous, read from FIG. 2

saturation concentration in water: about 0.41 moles/100 g H2O
Structure (SMILES): [Cl-].[K+] [KCl]
